Experimental data reported in patent US20060194315A1, “Compositions and methods for the control, differentiaton and/or manipulation of pluripotent cells through a gamma-secretase signaling pathway” (priority 2003, published 2006).

Tests used:
Hes1 = assay: Real-time RT-PCR of Hes1 induction by EDTA in hES cells; format: cell-based, human
Description: Hes1 induction by EDTA treatment was monitored by real-time RT-PCR. Cultures of […] on Matrigel-coated 24-well plates were treated with either 0.5% DMSO or 50 μM DAPT in CM for 4 hours to overnight before induction by EDTA exposure. The wells were exposed to 2 mM EDTA in CM (with DMSO or DAPT) for 15 minutes at 37° C. EDTA was neutralized by addition of 4.9 mM CaCl2 and incubated for a further 1.5 hours. The cells were harvested with Trizol and RNA was extracted as described above. Real-time PCR was performed using TaqMan primers and probes (Applied Biosystems, Inc.) for Hes1 (primer sequences: […] ID NO: 17); […] ID NO:18); probe […] NO:19)) and normalized to GAPDH (kit from Applied Biosystems, Inc; cat. no. 402869). Reactions were run and monitored on an ABI7700 Sequence Detection System (Applied Bioysytems, Inc). Data was analyzed as described in Pfaffl et al., 2002 Nucleic Acids Research 30(9): […]. REST-XL (version 2) software was used to determine relative quantification of Hes1 gene expression. The data were expressed as the ratio of GAPDH normalized Hes1 expression of EDTA-treated to EDTA-untreated samples. DAPT treated cultures were compared to DMSO treated cultures. These values were log transformed for statistical analysis by t-test and graphed in Excel.

hES cells [1] = assay: SSEA4 immunohistochemistry of treated hES cell cultures; format: cell-based, human; conditions: 50 μM DAPT vs DMSO treated cultures
Description: Cells on chamber slides were rinsed once with 1× PBS and fixed for 30 minutes in 4% PFA/4% sucrose in PBS pH7.4 at room temperature for surface staining, or in ice cold 100% methanol for 5 minutes at −20° C. followed by 4% PFA/4% sucrose in PBS for 10 minutes at room temperature for intracellular staining using the bTAN20 antibody. They were rinsed 3× in 1×PBS and blocked in 3% goat serum/1% PVP with or without 0.3% Triton-X100 in PBS for 30 minutes at 4° C. Primary antibodies were diluted in blocking solution and this solution was applied overnight at 4° C. to the cells. Cells were rinsed in 1×PBS and washed overnight with 3 changes of 1×PBS. Secondary antibodies were applied in blocking solution for 2 hours at 4° C. They were rinsed in 1×PBS then washed overnight with 3 changes of 1×PBS. Cell nuclei were stained with DAPI at 1 μg/ml in the first rinse for 10 minutes. The chambers were removed and slides were mounted in VectaShield mounting medium.
Inhibition of gamma-secretase reduces the number of spontaneously differentiated cells in the culture. […] These experiments are diagramed in FIG. 9. hES cell master cultures were maintained with the manual passaging technique. […] The treated cultures were analyzed for SSEA4 expression by flow cytometry, immunohistochemistry, and EB formation.

gamma-secretase complex = target: T1, gamma-secretase complex (Homo sapiens, UniProt P49768); assay: Western blot for gamma-secretase cleaved Notch1 (NICD) in hES cells harvested with Trypsin/EDTA; format: cell-based; conditions: BGN1 hES cells grown in 50 μM DAPT for 3 days, vs 0.5% DMSO
T1 construct: endogenous in cells; host or cells: BGN1 human embryonic stem cells, grown on mouse embryonic fibroblast feeders
Description: Western blots were done using standard procedures. In brief, protein content of samples was determined with a BCA micro protein assay (Pierce, Rockford, Ill.) and equal amounts of protein were loaded onto precast polyacrylamide mini-gels (Gradipore, Australia). Proteins were transferred to nylon membranes which were then incubated for 30 minutes in blocking buffer (tris buffered saline/0.1% tween 20/5% powdered milk). Primary antibodies were diluted in blocking buffer at the following ratios: bTAN20 and C651.6bHN were diluted 1:10; anti-Oct4 was diluted 1:100; anti-presenilin, nicastrin, cleaved NOTCH1 were diluted 1:1000 and anti-HDAC was used at a concentration of 0.5 μg/ml. Primary antibodies were incubated overnight at 4° C., followed by two five-minute washes and one 15-minute wash in tris-buffered saline/0.1% tween 20. Secondary antibodies were diluted in blocking buffer and incubated with the membranes for 45 minutes at room temperature. Washes were repeated as above and a final 15-minute wash was done with tris-buffered saline. ECL (Amersham, Buckinghamshire, England) was performed according to the manufacturer's instructions and autoradiographs were made.
To address the possibility that trypsin non-specifically generated the 110 kD Notch1 band, DAPT, a potent and specific gamma-secretase inhibitor, was used to treat the hES cells before harvesting. […]

[2] = system: hES cells (BGN1 and BGN2); assay: Flow cytometry of SSEA4 and Notch1 expression in treated hES cell cultures; format: cell-based, human; conditions: for proportion of cells in Fr. A (SSEA4high/Notch1high, undifferentiated cells): 50 μM DAPT vs DMSO, four experiments
Description: Cultures were harvested by Collagenase/trypsin passaging methods described above as an essentially single cell suspension, washed in 1×PBS, and fixed in 1% paraformaldehyde for 25 minutes on ice. The cells were washed in 1×PBS, blocked in 3% goat serum, and stained with primary antibodies for 30 minutes. to overnight at 4° C. The cells were washed in 1×PBS three times and stained with Secondary FITC or PE conjugated antibodies (Jackson Immunochemicals, Inc.) for 1 hour to overnight at 4° C. The cells were washed with 1×PBS three times and analyzed on a CyAn flow cytometer (DakoCytomation, Inc.).
Inhibition of gamma-secretase reduces the number of spontaneously differentiated cells in the culture. […] These experiments are diagramed in FIG. 9. hES cell master cultures were maintained with the manual passaging technique. A combination of Collagenase type IV treatment and Trypsin/EDTA exposure was used to passage the hES cells as single cells for no more than 10-12 passages before SSEA4 selection for early trypsin cultures, or were passaged more than 40 passages for late trypsin cultures. The cultures were selected for SSEA4 epitope expression using magnetic selection of SSEA4 antibody-stained cells. The retained fraction from the sort was plated and subjected to the treatment conditions. In some instances, SSEA4 selected cells were expanded for one or two passages. Treatment conditions were 50 μM DAPT, or 0.5% DMSO as carrier control. In some cases, these conditions were compared to untreated cells. The treated cultures were analyzed for SSEA4 expression by flow cytometry, immunohistochemistry, and EB formation.

hES cells [3] = assay: Embryoid body formation from late trypsin passaged hES cultures; format: cell-based, human; conditions: late trypsin passaged cultures maintained in DAPT vs DMSO vs untreated
Description: Embryoid bodies were formed from cultures that had been growing on Matrigel and exposed to the different treatments. These cultures were exposed to Collagenase type IV or Dispase (Gibco) for 10 minutes at 37° C. until a monolayer of cells lifted off of the dish. The monolayer was passed through a pipette tip until it was broken down to small clumps of approximately 500-1000 cells. These clumps were washed in 15% FBS/1% MEM nonessential amino acids/1 mM L-glutamine/penicillin (0.5 U/ml) and streptomycin (0.5 U/ml) twice by allowing them to settle by gravity, removing the supernatant, and resuspending the loose pellet. The cells were plated onto agarose coated Petri dishes in the same medium used for washing and allowed to grow for up to 10 days.
Inhibition of gamma-secretase reduces the number of spontaneously differentiated cells in the culture. […] These experiments are diagramed in FIG. 9. hES cell master cultures were maintained with the manual passaging technique. A combination of Collagenase type IV treatment and Trypsin/EDTA exposure was used to passage the hES cells as single cells for no more than 10-12 passages before SSEA4 selection for early trypsin cultures, or were passaged more than 40 passages for late trypsin cultures. […] The treated cultures were analyzed for SSEA4 expression by flow cytometry, immunohistochemistry, and EB formation.

[4] = inhibitor treatment vs DMSO, 4 experiments, BGN1 and BGN2

T1 sequence (Q92542 34-709, other chains not shown): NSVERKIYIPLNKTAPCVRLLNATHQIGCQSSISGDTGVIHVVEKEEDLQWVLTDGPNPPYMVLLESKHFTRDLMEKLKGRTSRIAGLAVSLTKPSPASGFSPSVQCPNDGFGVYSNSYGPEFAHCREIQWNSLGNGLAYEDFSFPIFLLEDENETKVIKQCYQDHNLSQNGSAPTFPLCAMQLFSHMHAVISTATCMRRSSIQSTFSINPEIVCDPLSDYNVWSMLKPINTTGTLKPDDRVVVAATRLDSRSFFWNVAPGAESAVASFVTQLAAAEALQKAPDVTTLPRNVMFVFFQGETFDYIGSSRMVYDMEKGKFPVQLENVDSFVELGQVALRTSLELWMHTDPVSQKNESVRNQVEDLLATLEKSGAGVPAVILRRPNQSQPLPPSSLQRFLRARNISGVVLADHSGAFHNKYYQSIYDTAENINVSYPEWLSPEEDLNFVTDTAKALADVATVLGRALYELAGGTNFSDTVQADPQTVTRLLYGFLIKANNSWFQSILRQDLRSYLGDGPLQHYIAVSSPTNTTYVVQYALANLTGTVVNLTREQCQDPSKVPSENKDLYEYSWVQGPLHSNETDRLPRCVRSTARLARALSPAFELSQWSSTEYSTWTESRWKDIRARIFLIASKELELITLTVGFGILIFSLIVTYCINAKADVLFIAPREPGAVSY
T1 sequence (Q96BI3 whole entry, other chains not shown, further chain): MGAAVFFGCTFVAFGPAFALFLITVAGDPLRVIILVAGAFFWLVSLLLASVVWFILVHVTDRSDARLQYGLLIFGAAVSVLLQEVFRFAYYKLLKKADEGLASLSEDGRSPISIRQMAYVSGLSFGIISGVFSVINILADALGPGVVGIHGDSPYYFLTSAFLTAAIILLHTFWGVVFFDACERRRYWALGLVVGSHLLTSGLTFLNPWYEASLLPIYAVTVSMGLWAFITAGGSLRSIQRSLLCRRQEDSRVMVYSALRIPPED
T1 sequence (Q9NZ42 whole entry, other chains not shown, further chain): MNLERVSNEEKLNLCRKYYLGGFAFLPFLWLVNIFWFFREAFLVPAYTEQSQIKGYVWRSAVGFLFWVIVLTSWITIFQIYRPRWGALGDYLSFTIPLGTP

Compound	Hes1 induction by EDTA exposure (Hes1; 2 mM EDTA 15 minutes, three independent experiments)	homogeneity of SSEA4 expression (immunohistochemical stain) (hES cells [1])	Hes1 induction by EDTA in the presence of the inhibitor (GAPDH normalized expression ratio) (Hes1; 50 μM DAPT 4 hours to overnight, 2 mM EDTA 15 minutes, three independent experiments)	reduction in Hes1 expression with inhibitor treatment, significance (Hes1; EDTA induction, DAPT vs DMSO, p=0.032, t-test)	generation of the NICD fragment (cleaved form of Notch1) upon Trypsin/EDTA exposure (gamma-secretase complex)	proportion of cells in Fr. A (SSEA4high/Notch1high, undifferentiated cells) ([2]; BGN1 and BGN2)	proportion of cells in Fr. A (SSEA4high/Notch1high, undifferentiated cells) ([2]; BGN1 and BGN2, listed as inhibitor)	cells in Fr. B (SSEA4low-neg/Notch1pos, differentiating cells) ([2]; 50 μM DAPT, average of four experiments, BGN1 and BGN2, DMSO control 30%, p=0.0243)	proportion of Fr. B (SSEA4low-neg/Notch1pos) cells in culture, in words ([2]; DAPT vs DMSO and untreated, triplicate cultures)	number of cells in Fr. A [2, 4]	number of cells in Fr. B [2, 4]	morphology of embryoid bodies (hES cells [3])
O=C(O)CN(CCN(CC(=O)O)CC(=O)O)CC(=O)O [EDTA]	up to 10 fold											
C[C@H](NC(=O)Cc1cc(F)cc(F)c1)C(=O)N[C@H](C(=O)OC(C)(C)C)c1ccccc1 [DAPT, N-[N-(3,5-Difluorophenacetyl-L-alanyl)]-S-phenylglycine t-Butyl Ester]		more homogenous	less than two-fold	significant	not generated	small but significant increase	significantly increased	15%	reduced	remained unchanged	significantly reduced	returned the EBs to a cystic morphology
